Key:
Human CD4+ T cells = test: Relieving AMP-induced proliferation inhibition of human CD4+ T cells (CCK8); assay type: cell-based; settings: AMP 0.3 mM, day 5
Procedure: On day 1 of the experiment, CD4^+ T cells (Allcells Shanghai, PB009-2F-C) were thawed, and inoculated into two replicate wells according to 3×10^4 cells/well and 50 μL/well. The compound was diluted with a complete medium to form a stock solution (4×) of an appropriate concentration gradient, the compound solution was added to the above cells according to 50 μL/well, and the mixture was pre-incubated at 37° C. for 30 min. […] Meanwhile, a positive reference group (Human CD4^+ T+IL-2+CD3/CD28 beads) and a negative reference group (Human CD4^+ T+IL-2+CD3/CD28 beads+AMP) were set. AMP (Sigma; A1752-5G) was diluted with a complete medium to form an AMP solution (4×), the AMP solution was added to the above cells according to 50 μL/well, the final concentration was 0.3 mM, and the mixture was incubated at 37° C. On day 3 of the experiment, the AMP solution was added to the above plate according to 20 μL/well, and the final concentration was 0.3 mM. On day 5, the proliferation of the cells was detected by using a CCK8 kit (DojinDO; CK04).
Inhibition rates of the compound at different concentrations in relieving AMP-induced proliferation inhibition of CD4^+ T cells were calculated according to the following formula, the concentration of the compound was taken as the X-axis, the inhibition rate was taken as the Y-axis, and an EC50 value of the compound in relieving the AMP-induced proliferation inhibition of CD4^+ T cells was calculated by using Prism software.

[1] = molecular target: CD73 bound to the surfaces of A375 cells (Homo sapiens (Human), UniProt P21589); test: Inhibitory activity to CD73 enzyme bound to the surfaces of human melanoma A375 cells; assay type: cell-based; settings: AMP 200 μM, 16 h
CD73 bound to the surfaces of A375 cells, sequence (P21589 27-574): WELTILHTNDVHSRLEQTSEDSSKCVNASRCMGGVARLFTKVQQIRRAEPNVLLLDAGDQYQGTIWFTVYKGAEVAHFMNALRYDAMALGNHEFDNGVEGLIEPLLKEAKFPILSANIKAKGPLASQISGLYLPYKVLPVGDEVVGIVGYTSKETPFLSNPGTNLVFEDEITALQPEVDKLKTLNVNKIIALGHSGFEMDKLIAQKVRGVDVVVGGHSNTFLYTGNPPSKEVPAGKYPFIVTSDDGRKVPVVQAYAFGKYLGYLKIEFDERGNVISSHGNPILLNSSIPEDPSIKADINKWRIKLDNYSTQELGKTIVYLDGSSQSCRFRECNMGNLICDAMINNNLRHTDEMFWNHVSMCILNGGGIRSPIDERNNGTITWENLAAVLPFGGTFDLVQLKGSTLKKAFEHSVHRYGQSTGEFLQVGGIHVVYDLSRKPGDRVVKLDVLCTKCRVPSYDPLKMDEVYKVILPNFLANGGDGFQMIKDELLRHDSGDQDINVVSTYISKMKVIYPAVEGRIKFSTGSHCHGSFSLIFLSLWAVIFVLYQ
Procedure: The compound was diluted with serum-free DMEM to form a stock solution (5×) of an appropriate concentration gradient, the compound solution was added to the cells in the above 96-well plate according to 20 μL/well, and the mixture was placed in an incubator and pre-incubated for 30 min.
(§1) A375-bound CD73 inhibition rates of the compound at different concentrations were calculated according to the following formula, the concentration of the compound was taken as the X-axis, the inhibition rate was taken as the Y-axis, and an IC50 value of the compound in inhibiting A375-bound CD73 was calculated by using Prism software.

[2] = Pharmacokinetic test on mice; assay type: in vivo, male ICR mice; settings: for Vd: read-out: Vz; for pharmacokinetic properties compared to the reference compounds: mice
Procedure: (§2) In a pharmacokinetic test on mice, male ICR mice of 20 g to 25 g were used and fasted overnight. 3 mice were selected for orally intragastric administration (10 mg/kg). Before administration, and 15 min, 30 min, 1 h, 2 h, 4 h, 8 h, and 24 h after administration, blood was sampled from each mouse. Another 3 mice were selected for intravenous injection administration (3 mg/kg), and before administration, and 15 min, 30 min, 1 h, 2 h, 4 h, 8 h, and 24 h after administration, blood was sampled from each mouse. The blood sample was centrifuged at 6,800 g and 2 to 8° C. for 6 min, and plasma was collected and stored at −80° C. The plasma of each time point was vortex-mixed for 1 min with an acetonitrile solution containing the internal standard with a volume 3-5 times that of the plasma of each time point, and centrifuged at 13,000 rpm and 4° C. for 10 min, a supernatant was collected and mixed with water with a volume 3 times that of the supernatant, and an appropriate amount of the mixed solution was used for LC-MS/MS analysis. The main pharmacokinetic parameters were analyzed by using a WinNonlin 7.0 non-compartmental model.

[3] = Pharmacokinetic test on dogs; assay type: in vivo, male Beagle dogs; settings: for exposure compared to the reference compounds: dogs; for AUC(0-t) / Cmax / Tmax / half-life / clearance / Vd: male, Beagle, plasma, dog; for Vd: read-out: Vz
Procedure: as §2
In a pharmacokinetic test on dogs, male Beagle dogs of 8 to 10 kg were used and fasted overnight. 3 Beagle dogs were selected for orally intragastric administration (5 mg/kg). Another 3 Beagle dogs were selected for intravenous injection administration (1 mg/kg). Other operations were the same as the pharmacokinetic test on mice.

Human-CD73 enzyme = Human-CD73 enzyme (Homo sapiens (Human), UniProt P21589); test: In vitro inhibitory activity to recombinant human CD73 enzyme (ATP-GLO); assay type: biochemical; settings: Human-CD73 0.1 μg/mL, AMP 100 μM
Human-CD73 enzyme, sequence (P21589 27-574): as above
Procedure: Human-CD73 (Novoprotein; C446) was diluted with Tris-MgCl2 buffer to form a stock solution (3×), which was placed in a 96-well plate according to 20 μL/well to obtain a final concentration of 0.1 μg/mL. The compound was diluted with Tris-MgCl2 buffer to form a stock solution (3×) of an appropriate concentration gradient, the compound solution was added to the above 96-well plate according to 20 μL/well and uniformly mixed with the Human-CD73 solution, and the mixture was incubated at the room temperature for 30 min. Meanwhile, a positive reference group (without the compound) and a negative reference group (without CD73) were set. AMP (Sigma; A1752-5G) was diluted with Tris-MgCl2 buffer to form a stock solution (3×), which was added to the above 96-well plate according to 20 μL/well to obtain a final concentration of 100 μM, and the mixture was uniformly mixed and incubated at 37° C. for 60 min; ATP (Sigma; A7699-1G) was diluted with Tris-MgCl2 buffer to form a stock solution (7×), which was added to the above 96-well plate according to 10 μL/well to obtain a final concentration of 100 μM, and the mixture was uniformly mixed, incubated for 5 min, and tested by using an ATP-GLO kit (Promega; G7573).
as §1, with “Human-CD73” for “A375-bound CD73”

A375 melanoma = test: In vivo efficacy on A375 melanoma (PBMC + A375 cells in NCG mice); settings: anti PD-1 10 mg/kg alone
Procedure: A375 cells in logarithmic growth phase were collected, cultured in Mitomycin C for 2 h, and washed three times with PBS. After 5 days of co-culture of PBMC and A375 cells, PBMC and freshly digested A375 cells were collected, 5×10^5 PBMC and 4×10^6 A375 cells were inoculated subcutaneously on the right side of NCG mice according to 0.2 mL/mouse (containing 50% Matrigel). After inoculation, the mice were randomly divided into a model group and an administration group according to body weight of the mice, tumor size and animal weight were measured and recorded before and during administration, and tumor sizes of the model group and the administration group were compared after treatment to determine the efficacy.

[4] = male, ICR, plasma, po, mouse, orally intragastric 10 mg/kg
[5] = male, ICR, plasma, po, mouse, orally intragastric 10 mg/kg, read-out: AUC0-t
[6] = male, ICR, plasma, po, mouse, orally intragastric 10 mg/kg, read-out: Cmax
[7] = male, ICR, plasma, po, mouse, orally intragastric 10 mg/kg, read-out: Tmax
[8] = male, ICR, plasma, mouse, intravenous injection 3 mg/kg
[9] = male, ICR, plasma, mouse, intravenous injection 3 mg/kg, read-out: AUC0-t
[10] = po, orally intragastric 5 mg/kg
[11] = mouse, orally intragastric 10 mg/kg

Molecule | IC50 [1] [µM] | half-life [2, 4] [h] | AUC(0-t) [2, 5] [µg·h/mL] | Cmax [2, 6] [µg/mL] | Tmax [2, 7] [h] | clearance [2, 8] [L/h/kg] | half-life [2, 8] [h] | AUC(0-t) [2, 9] [µg·h/mL] | Vd [2, 8] [L/kg] | pharmacokinetic properties compared to the reference compounds [2] | IC50 (Human-CD73 enzyme) [µM] | EC50 (Human CD4+ T cells; Homo sapiens, 120 h) [µM] | other results
O=c1[nH]cc(-c2cc([C@H]3C[C@@H]3COC(F)(F)F)c(Cl)nn2)c(=O)[nH]1 [Compound 11, 5-(6-chloro-5-((1S,2S)-2-((trifluoromethoxy)methyl)cyclopropyl)pyridazin-3-yl)pyrimidine-2,4(1H,3H)-dione] |  | 3.06 | 36.2 | 5.53 | 0.67 | 0.47 | 3.72 | 6.95 | 2.57 | significantly improved |  | 0.169 | exposure compared to the reference compounds [3]: much higher; AUC(0-t) [3, 10]: 16.6 µg·h/mL; Cmax [3, 10]: 5.71 µg/mL; Tmax [3, 10]: 0.83 h; half-life [3, 10]: 2.27 h; AUC(0-t) ([3]; intravenous injection 1 mg/kg): 2.1 µg·h/mL; clearance ([3]; intravenous injection 1 mg/kg): 0.53 L/h/kg; half-life ([3]; intravenous injection 1 mg/kg): 0.89 h; Vd ([3]; intravenous injection 1 mg/kg): 0.66 L/kg
Cc1nnc(-c2c[nH]c(=O)[nH]c2=O)cc1[C@H]1C[C@@H]1C(F)F [Reference compound 1, 5-(5-((1S,2S)-2-(difluoromethyl)cyclopropyl)-6-methylpyridazin-3-yl)pyrimidine-2,4(1H,3H)-dione, reference compound] | 0.247 | 1.17 | 0.821 | 1.15 | 0.25 | 5.11 | 1.99 | 0.585 | 14.7 |  | 0.0125 |  | 
Toripalimab [anti PD-1] |  |  |  |  |  |  |  |  |  |  |  |  | % TGI (A375 melanoma): 25.08%; Mean ± SEM (tumor size) (A375 melanoma; in mm³ (unit assumed)): 1472 ± 194.9

Continued, in another order:

IC50 [1] [µM] | half-life [2, 4] [h] | AUC(0-t) [2, 5] [µg·h/mL] | Cmax [2, 6] [µg/mL] | Tmax [2, 7] [h] | clearance [2, 8] [L/h/kg] | half-life [2, 8] [h] | AUC(0-t) [2, 9] [µg·h/mL] | Vd [2, 8] [L/kg] | pharmacokinetic properties compared to the reference compounds [2] | IC50 (Human-CD73 enzyme) [µM] | Molecule | EC50 (Human CD4+ T cells; Homo sapiens, 120 h) [µM] | other results
0.0268 | 2.7 | 107 | 12.1 | 0.83 | 0.22 | 3.72 | 13.8 | 1.17 | significantly improved |  | O=c1[nH]cc(-c2cc([C@H]3C[C@@H]3C(F)(F)F)c(Cl)nn2)c(=O)[nH]1 [Compound 3, 5-(6-chloro-5-((1S,2S)-2-(trifluoromethyl)cyclopropyl)pyridazin-3-yl)pyrimidine-2,4(1H,3H)-dione] | 0.111 | 
0.134 | 2.85 | 185 | 16.1 | 3 | 0.2 | 3.68 | 15.2 | 1.05 | significantly improved | 0.0584 | O=c1[nH]cc(-c2cc([C@@H]3C[C@H]3C(F)(F)F)c(Cl)nn2)c(=O)[nH]1 [Compound 4, 5-(6-chloro-5-((1R,2R)-2-(trifluoromethyl)cyclopropyl)pyridazin-3-yl)pyrimidine-2,4(1H,3H)-dione] | 1.07 | exposure compared to the reference compounds [3]: much higher; AUC(0-t) [3, 10]: 65.7 µg·h/mL; Cmax [3, 10]: 7.55 µg/mL; Tmax [3, 10]: 1.17 h; half-life [3, 10]: 4.13 h; AUC(0-t) ([3]; intravenous injection 1 mg/kg): 5.81 µg·h/mL; clearance ([3]; intravenous injection 1 mg/kg): 0.18 L/h/kg; half-life ([3]; intravenous injection 1 mg/kg): 3.63 h; Vd ([3]; intravenous injection 1 mg/kg): 0.95 L/kg
0.0549 |  |  |  |  |  |  |  |  |  | 0.0321 | Cc1nnc(-c2c[nH]c(=O)[nH]c2=O)cc1[C@H]1C[C@@H]1C(F)(F)F [Compound 7, 5-(6-methyl-5-((1S,2S)-2-(trifluoromethyl)cyclopropyl)pyridazin-3-yl)pyrimidine-2,4(1H,3H)-dione] |  | 
0.00556 |  |  |  |  |  |  |  |  | significantly improved | 0.00817 | O=c1[nH]cc(-c2cc([C@H]3C[C@@H]3CC(F)(F)F)c(Cl)nn2)c(=O)[nH]1 [Compound 9, 5-(6-chloro-5-((1S,2R)-2-(2,2,2-trifluoroethyl)cyclopropyl)pyridazin-3-yl)pyrimidine-2,4(1H,3H)-dione] |  | EC50 (Human CD4+ T cells): 0.0326 µM; AUC(0-t) [2, 11]: 65.441 µg·h/mL; Cmax [2, 11]: 6.6019 µg/mL; T1/2 [2, 11]: 4.87 h; Tmax [2, 11]: 1.17 h
0.0176 | 1.43 | 9.8 | 4.41 | 0.42 | 0.62 | 1.82 | 5.07 | 1.5 |  |  | O=c1[nH]cc(-c2cc([C@H]3C[C@@H]3CC(F)F)c(Cl)nn2)c(=O)[nH]1 [Compound 18, 5-(6-chloro-5-((1S,2R)-2-(2,2-difluoroethyl)cyclopropyl)pyridazin-3-yl)pyrimidine-2,4(1H,3H)-dione] |  | 

Source: patent US20230399314A1, “CD73 INHIBITOR AND USE THEREOF” (WUHAN HUMANWELL INNOVATIVE DRUG RESEARCH AND DEVELOPMENT …, priority 2020, published 2023)
